Series [1] can be described thus: Rat bioavailability / pharmacokinetics, plasma teriparatide by ELISA. The note with it: for AUCinf / AUClast: mean ± SD (n = 4). As to the method: After anesthesia by intraperitoneal injection of ketamine (45 mg/kg) and xylazine (5 mg/kg) to female Sprague-Dawley rats (200-250 g, 6-7 weeks old), the abdomen of the rat was cut to take out the small intestine, and Examples 1 and 4 and Comparative Examples 1 and 2 prepared above were dispersed in purified water, and then injected into a proximal jejunum in an amount corresponding to 100 μg/kg as teriparatide by 400 μL. In addition, in order to evaluate the relative bioavailability, 150 μL of teriparatide solution dissolved in physiological saline was subcutaneously injected at an amount corresponding to 20 μg/kg as teriparatide.
After drug administration, blood samples were collected 150 μL at regular time intervals and mixed with 3.8% aqueous sodium citrate solution of 50 μL. Thereafter, the blood sample was centrifuged for 15 minutes at 2,500×g, at 4° C., and plasma was collected and stored at −70° C. The teriparatide concentration in plasma was measured at a wavelength of 620 nm using the human PTH (1-34) ELISA kit (ALPCO Diagnostics, USA). The pharmacokinetic parameters are estimated through the non-compartment method using WinNonlin S Software (ver. 5.3; Pharsight Corporation, USA) and are shown in Table 6 and FIG. 1.

Series [2] in a line: Parallel artificial membrane permeability assay (PAMPA), effective permeability of teriparatide. The format is in vitro ADME. The note with it: PBS pH 6.8, 200 μg/mL as teriparatide, room temperature, 5 hours, mean ± SD (n = 4). As to the method:
Effective permeability (Pe) through the artificial intestinal membrane of Examples 1 and Comparative Examples 1 to 7 prepared above was evaluated using the parallel artificial membrane permeability assay (PAMPA), which is an artificial intestinal membrane permeability evaluation system. First, the samples of Example 1 and Comparative Examples 1 to 7 were dissolved in phosphate buffer (PBS, pH 6.8) to a concentration of 200 μg/mL as teriparatide, and then 200 μL each was added to the donor part of the PAMPA system, and 300 μL of phosphate buffer (PBS, pH 6.8) was filled in the receiving part of the PAMPA system. […] Then, the solution of each well of the receiving part and the donor part was filtered through a membrane filter having a pore diameter of 0.45 μm, and then the concentration of teriparatide permeated through the artificial intestinal membrane was analyzed using the HPLC system under the following conditions.
50 μL of each sample was injected into the HPLC system, and acetonitrile (B) containing 0.1% (w/v) trifluoroacetic acid (TFA) aqueous solution (A) and 0.1% (w/v) TFA as mobile phases were separated by linearly changing the composition of mobile phase B from 51% to 76% for 25 minutes at a flow rate of 1.0 mL/min. Teriparatide was measured at 220 nm, and the effective transmittance (Pe) through the artificial intestinal membrane was calculated by Formula 1 below. […]

Series [3] is described as follows: Apparent permeability through Caco-2 cell monolayer (Transwell). The format is in vitro ADME. The note with it: Caco-2 monolayer, 200 μM as teriparatide in HBSS, 37° C., up to 5 hours; mean ± SD (n = 4); read-out: Apparent transmittance (Papp). Here is the method:
The apparent permeability of the complexes prepared as in Example 1 and Comparative Examples 1 to 7 to the intestinal cell membrane, Caco-2 cell membrane, was evaluated as follows. After Caco-2 cells were treated at a concentration of 1×10^5 cells/mL in 24-well Transwell, respectively, and after culturing the cells for 14 to 16 days, a cell monolayer of the electrical resistance (TEER) value through the Caco-2 cell membrane was >350 Ω·cm^2 was used for the experiment. First, the medium was removed from the Transwell, and then the donor part and receiving part were filled with HBSS and cultured at 37° C. for 20 minutes, then the TEER value was measured again, and then HBSS was removed. […] At 0.5, 1, 2, 3, 4, and 5 hours, 100 μL samples were collected from the receiving part, filtered using a membrane filter (pore 0.45 μm, PVDF), and the concentration of teriparatide permeated through the intestinal cell membrane was analyzed by HPLC under the conditions mentioned in Experimental Example 1. Apparent intestinal cell membrane permeability (Papp) was calculated using Formula 2 below, and the results are shown in Table 3. […]

The mark [4] stands for this setting: female, Sprague-Dawley, plasma, sc, 0.02 mg/kg.
The mark [5] stands for this setting: subcutaneous injection, 0.02 mg/kg as teriparatide.
[6] abbreviates: dosing in jejunum, 0.1 mg/kg as teriparatide.

In the case of `CC[C@H](C)[C@H](NC(=O)[C@H](CCC(=O)O)NC(=O)[C@H](CO)NC(=O)[C@@H](NC(=O)[C@@H](N)CO)C(C)C)C(=O)N[C@@H](CCC(N)=O)C(=O)N[C@@H](CC(C)C)C(=O)N[C@@H](CCSC)C(=O)N[C@@H](Cc1cnc[nH]1)C(=O)N[C@@H](CC(N)=O)C(=O)N[C@@H](CC(C)C)C(=O)NCC(=O)N[C@@H](CCCCN)C(=O)N[C@@H](Cc1cnc[nH]1)C(=O)N[C@@H](CC(C)C)C(=O)N[C@@H](CC(N)=O)C(=O)N[C@@H](CO)C(=O)N[C@@H](CCSC)C(=O)N[C@@H](CCC(=O)O)C(=O)N[C@@H](CCCN=C(N)N)C(=O)N[C@H](C(=O)N[C@@H](CCC(=O)O)C(=O)N[C@@H](Cc1c[nH]c2ccccc12)C(=O)N[C@@H](CC(C)C)C(=O)N[C@@H](CCCN=C(N)N)C(=O)N[C@@H](CCCCN)C(=O)N[C@@H](CCCCN)C(=O)N[C@@H](CC(C)C)C(=O)N[C@@H](CCC(N)=O)C(=O)N[C@@H](CC(=O)O)C(=O)N[C@H](C(=O)N[C@@H](Cc1cnc[nH]1)C(=O)N[C@@H](CC(N)=O)C(=O)N[C@@H](Cc1ccccc1)C(=O)O)C(C)C)C(C)C` [Teriparatide], in series [1] (setting [4]), the peak level (Cmax) was 0.805 ± 0.209 ng/mL, the Tmax stood at 15 min and the bioavailability came out at 100%. Besides, in series [1] (setting [5]), the AUCinf is given as 0.765 ± 0.199 ng ·) sh/mL and the AUClast is reported as 0.734 ± 0.191 ng ·) sh/mL.
Regarding `CC[C@H](C)[C@H](NC(=O)[C@H](CCC(=O)O)NC(=O)[C@H](CO)NC(=O)[C@@H](NC(=O)[C@@H](N)CO)C(C)C)C(=O)N[C@@H](CCC(N)=O)C(=O)N[C@@H](CC(C)C)C(=O)N[C@@H](CCSC)C(=O)N[C@@H](Cc1cnc[nH]1)C(=O)N[C@@H](CC(N)=O)C(=O)N[C@@H](CC(C)C)C(=O)NCC(=O)N[C@@H](CCCCN)C(=O)N[C@@H](Cc1cnc[nH]1)C(=O)N[C@@H](CC(C)C)C(=O)N[C@@H](CC(N)=O)C(=O)N[C@@H](CO)C(=O)N[C@@H](CCSC)C(=O)N[C@@H](CCC(=O)O)C(=O)N[C@@H](CCCN=C(N)N)C(=O)N[C@H](C(=O)N[C@@H](CCC(=O)O)C(=O)N[C@@H](Cc1c[nH]c2ccccc12)C(=O)N[C@@H](CC(C)C)C(=O)N[C@@H](CCCN=C(N)N)C(=O)N[C@@H](CCCCN)C(=O)N[C@@H](CCCCN)C(=O)N[C@@H](CC(C)C)C(=O)N[C@@H](CCC(N)=O)C(=O)N[C@@H](CC(=O)O)C(=O)N[C@H](C(=O)N[C@@H](Cc1cnc[nH]1)C(=O)N[C@@H](CC(N)=O)C(=O)N[C@@H](Cc1ccccc1)C(=O)O)C(C)C)C(C)C` [compound 1], the “Effective transmittance (Pe)” value in series [2] is listed as 0.582 ± 0.132 ×10^−6 cm/s. Further, in series [3], the Papp came out at 0.362 ± 0.045 ×10⁻⁶ cm/s. The compound also gave a bioavailability in series [1] (0.1 mg/kg) of 0.81 ± 0.191%. In series [1] (setting [6]), the AUCinf is listed as 0.031 ± 0.007 ng ·) sh/mL and the AUClast came to 0.030 ± 0.007 ng ·) sh/mL. For the same compound, in series [1] (in vivo, 0.1 mg/kg), the exposure AUC(0-t) was 0.03 ± 0.007 ng·h/mL, the Cmax worked out at 0.041 ± 0.01 ng/mL and the Tmax was determined as 19.8 ± 8.4 min.

These data come from patent US20220339261A1, “ORAL PHARMACEUTICAL COMPOSITION INCLUDING TERIPARATIDE AND METHOD FOR PREPARING SAME” (ICURE BNP CO., LTD., priority 2019, published 2022).
